# Several values for one entry are separate records, joined by “and”; a condition that tells them apart may be missing. Equal entries are not always repeated.
# T1: LovD (Aspergillus terreus, UniProt Q9Y7D1)
# T1 sequence (Q9Y7D1 1-413): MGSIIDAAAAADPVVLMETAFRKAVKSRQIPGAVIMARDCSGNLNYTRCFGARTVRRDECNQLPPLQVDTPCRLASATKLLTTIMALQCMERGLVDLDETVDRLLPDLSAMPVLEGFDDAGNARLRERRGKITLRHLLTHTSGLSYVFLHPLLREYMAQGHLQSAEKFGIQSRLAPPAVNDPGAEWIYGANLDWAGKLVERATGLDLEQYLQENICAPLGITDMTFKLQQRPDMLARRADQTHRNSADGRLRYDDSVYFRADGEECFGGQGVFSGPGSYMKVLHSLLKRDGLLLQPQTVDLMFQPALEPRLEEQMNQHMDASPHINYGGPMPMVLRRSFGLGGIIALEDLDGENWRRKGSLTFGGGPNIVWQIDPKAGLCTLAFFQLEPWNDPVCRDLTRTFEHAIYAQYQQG
# B1: LovD (Aspergillus terreus) (protein)
# chain: T1 sequence (Q9Y7D1 1-413)
# notes: 6xHis (N); made in house; host or cells: E. coli BL21(DE3)/pAW31 (pET28a)
# How the values were obtained:
# E. coli BL21(DE3)/pAW31 = experiment: Whole cell biocatalysis with E. coli overexpressing LovD; assay type: cell-based, Escherichia coli
# Protocol: The BL21(DE3)/pAW31 overexpression strain was grown in a shake flask (200 mL) to an OD600 of 1.0, at which time 1 mM IPTG, 0.8 mM monacolin J and 4 mM of either benzoyl-SNAC or benzoyl-SMTG were added to the culture. Expression of LovD and bioconversion was performed at 18° C. The culture was extracted and analyzed for the formation of 8-benzoyl-monacolin J. When supplemented with benzoyl-SNAC, 84% conversion of monacolin J was detected within 20 hours post-induction. The product was lactonized and purified by a single silica-gel chromatography step. The NMR spectra confirmed the regioselective benzoylation of the C8 hydroxyl group as the diagnostic H8 multiplet is shifted downfield to δ 5.61.
# Fermentation conditions: 500 mL culture with LB media with 30 mg/L kanamycin. At OD600 of 1.0, cells were concentrated to a final OD600 of 5.0 and induced with 1 mM IPTG. Substrates monacolin J and α-dimethylbutyryl-SNAC were added to a final concentration of 1 mM and 4 mM. At different time points, culture samples were collected, centrifuged, filtered and injected on to HPLC (20 μL). Extraction conditions: When maximum conversion was reached, the broth was acidified to pH of 2.0, extracted with ethyl acetate, dried and redissolved in toluene.
# (§1) Whole-cell catalytic synthesis of simvastatin acid from MJ acid and DMB-S-MMP were performed as described (see, e.g., Xie et al., (2007) Appl Environ Microbiol 73: 2054-2060). The E. coli BL21(DE3)/pAW31 and YT2/pAW31 strains were cultured side-by-side for comparison. A single colony of the freshly transformed strains was used to inoculate a 5 mL LB culture supplemented with 35 mg/L kanamycin and grown overnight at 37° C. The next morning, 100 μL of the overnight culture was inoculated into 50 mL cultures containing LB broth, F1 minimal medium and F1 medium supplemented with 0.15 mg/L biotin. Growth rates were monitored by periodically measuring the OD600 reading. When OD600 reached ˜0.5, 100 μM IPTG was added to the culture and expression of LovD was performed at 20° C. for 16 hours. To mimic high density fermentation conditions, the cells were concentrated 10-fold before addition of substrates. Typically, a 14 mL aliquot of the culture was transferred to a 15 mL centrifuge tube and the cells were collected by centrifugation (4° C., 4000 g, 10 minutes). The cell pellet was gently resuspended in 1316 μl of the supernatant, followed by addition of 84 μl of a MJ acid stock solution (250 mM in H2O) (final concentration 15 mM). The concentrated culture was then separated into seven 200 μL samples and 1.2 μL of pure DMB-S-MMP was added to each sample (final concentration ˜25 mM). The culture was then shaken at 300 rpm at room temperature. At each time point, a total extraction was performed by adding 10 μL 20% SDS to lyse the cells, followed by liquid-liquid extraction with 500 μL EA/1% AcOH. The organic phase was removed, evaporated, and redissolved in 50 μL ACN for HPLC analysis. For the BL21(DE3) sample, an additional 1.2 μL aliquot of DMB-S-MMP was added after 12 hours to replenish the hydrolyzed substrates.
# The E. coli BL21(DE3)/pAW31 strain was grown in LB medium at 37° C. to an OD600 of 0.5, at which time 100 μM IPTG was added to the culture and expression was performed at RT for 16 hours. A 10 ml culture was transferred to a 15 mL centrifuge tube. The cells were collected by centrifugation (4000 g, 10 minutes). The cell pellet was resuspended in 957 μl of the supernatant. The pH was adjusted to pH 7.9 with 1.0 N NaOH, followed by addition of 33 μl 450 mM MJ (final concentration 15 mM) and 6 μl pure DMB-S-MMP (final concentration ˜25 mM). The culture was then shaken at 300 rpm at room temperature. At each time point, a 4 μL aliquot was removed from the reaction mixture, quenched in 300 μL ethyl acetate containing 1% TFA.
# YT2/pAW31 = experiment: Whole cell biocatalysis with ΔbioH E. coli overexpressing LovD; assay type: cell-based, Escherichia coli; conditions: 15 mM MJ acid, 25 mM DMB-S-MMP, less than 12 hours
# Protocol: as §1, with “The culture was then shaken at 300 rpm at room temperature. At each time point, a total extraction was performed by adding 10 μL 20% SDS to lyse the cells, followed by liquid-liquid extraction with 500 μL EA/1% AcOH. The organic phase was removed, evaporated, and redissolved in 50 μL ACN for HPLC analysis. For the BL21(DE3) sample, an additional 1.2 μL aliquot of DMB-S-MMP was added after 12 hours to replenish the hydrolyzed substrates.” left out
# E. coli = experiment: Whole-cell based hydrolysis / stability of thioester in E. coli cultures; parameters: species or system Escherichia coli; conditions: BL21(DE3)/pAW31 culture, 18° C., 24 hours
# Protocol: The selected 57 mutants from the Keio collection together with BW25113, BL21(DE3) and BL21(DE3)/pAW31 were grown to saturation in a 96-well deep well plate in 1 mL LB media at 37° C. Neat DMB-S-MMP (5 μL) was added to each culture with a final concentration of 20 mM. […] The organic phase was dried, redissolved in 20 μL acetonitrile (CH3CN), and 1 μL was spotted on a TLC plate (silica gel 60 F254). The TLC plates were developed with 20% EA in hexane and visualized with iodine.
# Analysis of the compounds were also performed with HPLC using an analytical C18 column (Alltech Apollo 5 u, 150 mm×4.6 mm); linear gradient: 60% CH3CN in water (0.1% trifluoroacetic acid [TFA]) to 95% CH3CN in water (0.1% TFA) over 5 min, 95% CH3CN in water (0.1% TFA) for 10 minutes, with a flow rate of 1 mL/min. HPLC retention times (tR) were as follows: MJ lactone form: 3.40 min; DMB-S-MPA: 3.82 min; DMB-S-MMP: 6.80 min; simvastatin lactone form: 8.45 min. Both MJ and simvastatin acids were lactonized before HPLC analysis.
# The mutants, wild type […] and BL21(DE3) were grown to saturation in LB broth in a 96-well plate. […] The cultures were acidified, extracted with ethyl acetate, and the organic phases were analyzed by thin layer chromatography (TLC) using a mobile phase (20% ethyl acetate in hexane) that enabled separation of DMB-S-MMP and DMB-S-MPA (FIG. 14A). […]
# LovD = target: T1, LovD; conditions: label = product formed
# Protocol: Assay conditions: 1 mM monacolin J, 10 mM acyl-SNAC, 100 uM LovD, 50 mM HEPES, pH 7.9, 25 degrees C., 6 hrs.
# [1] = substrate: CC[C@H](C)C(=O)O[C@H]1C[C@@H](C)C=C2C=C[C@H](C)[C@H](CC[C@@H]3C[C@@H](O)CC(=O)O3)[C@H]21; experiment: LovD catalyzed hydrolysis of lovastatin / simvastatin to monacolin J, HPLC; assay type: biochemical, Aspergillus terreus; conditions: other: statin as the only substrate; pH 7.9; 25.0 °C
# Protocol: FIG. 5. […] (B) Conversion as a function of time for (⋄) butyryl-CoA (♦) butyryl-SNAC, (▪) butyryl-SMTG. The apparent kcat values reported throughout the text are initial turnover rates in the linear range. (C) Michaelis-Menten plot of LovD catalyzed hydrolysis of lovastatin to monacolin J. The reaction progress is monitored by HPLC. kcat: 0.21±0.01 min^−1; Km: 0.56±0.05 mM.
# As shown in FIG. 5A (trace a), 87% conversion of monacolin J to 4 was observed after 10 hours using butyryl-CoA as an acyl donor. […] The observed 87% conversion is likely approaching equilibrium as evident in FIG. 5B. To examine the biochemical nature of the equilibrium conversion, we assayed whether LovD also catalyzes the reverse, hydrolysis reaction.
# [2] = substrate: CCC(C)(C)C(=O)SCCC(=O)OC; experiment: LovD transacylation assay: acyl transfer from acyl thioester to C8 hydroxyl of monacolin J, HPLC; assay type: biochemical, Aspergillus terreus; conditions: other: monacolin J fixed at 2 mM; DMB-S-MMP 0.2-10 mM, 5% DMSO; pH 7.9
# Protocol: We first examined if an acyl-CoA can be used as substrate for the transacylation reaction. The uninterrupted gene of LovD was amplified from A. terreus genomic DNA using splice by overlap extension PCR and was inserted into the pET28a expression vector. Overexpression of soluble, N-terminal 6×His fusion LovD was performed in E. coli strain BL21(DE3)/pAW31. LovD was purified using Nickel-NTA affinity column to homogeneity (final yield˜40 mg/L). The substrate monacolin J (1 mM) was prepared through the LiOH hydrolysis of lovastatin and was added to a reaction mixture containing pure LovD (10 μM) and butyryl-CoA (4 mM), which is a commercially available acyl-CoA that best mimics the natural α-methylbutyrate side chain. The reaction mixture was incubated at room temperature, extracted with ethyl acetate and analyzed by HPLC and LC-MS (FIG. 5).
# We assayed the tolerance of LovD towards different acyl substituents by performing the transacylation assay with various commercially available acyl-CoAs (Table 1A). […]
# Expression and purification of LovD has been previously described in detail (see, e.g., Xie et al., 2006, Chem Biol 13: 1161-1169). […] The initial velocities (ki) of the acyl substrates were determined with 10 μM LovD, 1 mM monacolin J and 4 mM of the thioester. […] The percent conversion of monacolin J to simvastatin was determined by HPLC analysis (C18). […]
molecule,measurement,setting,value
"CCC(C)(C)C(=O)SCCC(=O)OC [DMB-S-MMP, α-dimethylbutyryl-S-methyl-mercaptopropionate]","conversion of monacolin J to simvastatin, whole cell","E. coli BL21(DE3)/pAW31; 15 mM monacolin J, 25 mM DMB-S-MMP, cells concentrated 10×, room temperature, 24 hours",99% and > 99%
same,"conversion of MJ acid to simvastatin acid, whole cell",YT2/pAW31,> 99%
COC(=O)CSC(=O)c1ccccc1 [benzoyl-SMTG],conversion of monacolin J (benzoylation) in vivo,"E. coli BL21(DE3)/pAW31; 0.8 mM monacolin J, 4 mM acyl donor, 18° C., within 20 hours post-induction",40%
same,stability of acyl donor in E. coli culture,E. coli,rapidly degraded
CCC(C)(C)C(=O)OC1CC(O)C=C2C=CC(C)C(CCC(O)CC(O)CC(=O)O)C21 (centres unmarked) [huvastatin],apparent turnover rate for synthesis from tetra-ol 7 using the corresponding acyl-thioester,LovD,0.03 min⁻¹
B1,Km,[1],560 ± 50 µM
same,kcat,[1],0.0035 ± 0.00017 s⁻¹
same,Km,[2],670 ± 40 µM

# Source: patent US9970037B2, “Methods and materials for making simvastatin and related compounds” (The Regents of the University of California, priority 2006, dated 2018)
